# Assay results from patent US8609638B2, “Enzyme inhibiting compounds and methods” (priority 2009, dated 2013).
# Read-outs that look alike come from different tables or passages of the source.
# Biological target: T1, IspH (LytB), E-4-hydroxy-3-methyl-but-2-enyl diphosphate reductase (Aquifex aeolicus, UniProt O67625)
# T1 construct: inferred from Ni-NTA purification with imidazole elution; made in house; host or cells: E. coli BL-21(DE3)
# Test: biochemical
# Set-up: species or system A. aeolicus
# Experimental: A. aeolicus IspH Protein Purification. BL-21(DE3) cells expressing IspH from A. aeolicus were grown in LB media supplemented with […] ampicillin at 37° C. until the OD600 reached 0.6. Cells were then induced with 200 μg/L anhydrotetracycline and then grown at 20° C. for 15 hours. Cells were harvested by centrifugation (9000 rpm, 8 min, 4° C.) and kept at −80° C. until use. Cell pellets were resuspended and lysed in B-PER (Thermo Scientific, Rockford, Ill.) protein extraction reagent for 1 hour at 4° C. and then centrifuged at […] at 4° C. for 15 minutes. The supernatant was applied to a Ni-NTA column equilibrated with 5 mM imidazole in pH 8.0 buffer containing 50 mM Tris HCl and 150 mM NaCl. After washing with 20 mM imidazole, protein was eluted with 100 mM imidazole. Fractions were collected and dialyzed in pH 8.0 buffer containing 50 mM Tris HCl, 150 mM NaCl, 5% glycerol, and 1 mM DTT, four times. The purified protein was flash-frozen in liquid nitrogen and stored at −80° C. until use.
# E. coli IspH Protein Purification. BL21 DE3 (Invitrogen) cells harboring an E. coli IspH construct were grown in LB media at 37° C. until the OD600 reached 0.6. Induction was performed with 200 ng/mL anhydrotetracycline at 20° C. for 15 hours. Cells were harvested by centrifugation at 9000 rpm for 8 min and stored at −80° C. Cell pellets were resuspended and lysed in B-PER protein extraction reagent for about 1 hour at 4° C., and then the lysate was centrifuged at […] for 30 minutes. The supernatant was collected and loaded onto an IBA Strep-tag column equilibrated with buffer W (100 mM Tris.HCl, 150 mM NaCl, pH 8.0). After washing with buffer W, protein was eluted using buffer E (buffer W containing 2.5 mM desthiobiotin). Fractions were collected and dialyzed in pH 8.0 buffer containing 50 mM Tris.HCl, 150 mM NaCl, 5% glycerol, and 1 mM DTT, twice. The purified protein was flashfrozen in liquid nitrogen and stored at −80° C. until use.
# Protein Reconstitution. […] Before reconstitution, protein was transferred into a Coy vinyl anaerobic chamber after being degassed on a Schlenk line. The following steps were performed inside the anaerobic chamber with an oxygen level <2 ppm. In a typical reconstitution experiment, 10 mM DTT and ˜0.5 mg of elemental sulfur were added to 3 mL of 0.6 mM protein solution in a pH 8.0 buffer containing 50 mM Tris HCl, 150 mM NaCl, and 5% glycerol. After 1.5 hours under stirring, FeCl3 was slowly added from a 30 mM stock solution to 6 equiv. After 3 hours, an aliquot of the solution was centrifuged and a UV-vis spectrum recorded. If the A410 nm/A280 nm ratio was ≧0.38, the protein was then desalted by passing through a PD10 column. If the ratio was <0.38, more DTT, elemental sulfur, and FeCl3 were added, and the sample was incubated with stirring (for typically ˜2 h) until the 410 nm/280 nm absorption ratio was ˜0.38. The reconstituted protein was then concentrated by ultrafiltration, and the protein concentration was determined by using a Bio-Rad (Hercules, Calif.) protein assay kit.
# IspH inhibition assays. Assays were performed anaerobically at room temperature according to the methods of Altincicek et. al. (FEBS Lett. (2002) 532: 437-440) with the following modifications. […]
# For enzyme assays, various amounts of the test inhibitor ([…]) were added and the reactions were monitored at 732 nm. […]
# T1 sequence (O67625 whole entry): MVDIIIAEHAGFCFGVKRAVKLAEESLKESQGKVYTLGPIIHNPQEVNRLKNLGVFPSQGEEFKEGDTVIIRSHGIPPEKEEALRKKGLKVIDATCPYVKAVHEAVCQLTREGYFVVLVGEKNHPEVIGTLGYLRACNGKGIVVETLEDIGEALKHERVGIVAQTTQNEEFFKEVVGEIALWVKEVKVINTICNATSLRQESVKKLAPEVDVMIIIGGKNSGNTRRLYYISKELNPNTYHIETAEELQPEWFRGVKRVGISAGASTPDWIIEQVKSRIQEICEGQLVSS
compound,measurement,setting,value
"O=C(O)CCCCOP(=O)(O)OP(=O)(O)O [BPH-988, 5-Pentanoic acid diphosphate]",Ki,Ki,51 µM
"C#CCOP(=O)(O)OP(=O)(O)O [BPH-1061, Prop-2-ynyl diphosphate]",IC50,"IspH inhibition, inhibitor incubated 10 minutes before 34 μM HMBPP",6.8 µM
"C#CCCOP(=O)(O)OP(=O)(O)O [BPH-1077, But-3-ynyl diphosphate]",Ki,"IspH inhibition, Ki deduced from IC50 by Cheng-Prusoff equation, read-out: Ki",~0.2 µM
"C#CC[PH](=O)CP(=O)(O)O (centres unmarked) [BPH-1084, [[(Prop-2-ynyl)phosphinyl]methyl]phosphonic acid]",activity in IspH inhibition (in words),relative to parent or comparator compounds,decreased activity
"C#CCO [Propargyl alcohol, reference compound]",Ki,"IspH inhibition, read-out: Ki",> 10000 µM
